Assay results published in paper PMC7529893, “Structural basis for substrate recognition and chemical inhibition of oncogenic MAGE ubiquitin ligases” (Nature Communications, 2020).

Target: T1, MAGE-A11:PCF11 interaction (GST-MAGE-A11 and FAM-PCF11_4) (Homo sapiens, UniProt P43364)
T1 construct: GST-MAGE-A11 MHD (human MAGE-A11 MHD amino acid 218-429); made in house; host or cells: E. coli BL21(DE3)
T1 sequence (P43364 218-429): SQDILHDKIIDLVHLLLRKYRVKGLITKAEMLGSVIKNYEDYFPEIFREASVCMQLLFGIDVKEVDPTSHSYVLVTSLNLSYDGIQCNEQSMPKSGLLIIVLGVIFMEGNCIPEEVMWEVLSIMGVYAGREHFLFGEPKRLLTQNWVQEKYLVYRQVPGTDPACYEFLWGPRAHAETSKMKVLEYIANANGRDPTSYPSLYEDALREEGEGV
Experiment: TR-FRET primary / single point screen at 15 µM
Type: binding
Settings: single point TR-FRET screening of 797 quinoline compounds against MAGE-A11:PCF11
Procedure, shortened: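 Single-point screen at 15 µM final compound in 50 mM Tris pH 7.5, 20 mM MgCl2, 0.1 mg/ml BSA, 1 mM DTT, with 200 nM FAM-PCF11_4, 5 nM Tb-anti-GST and 5 nM GST-MAGE-A11. After 90 min at room temperature, the 520/490 nm TR-FRET ratio (340 nm excitation) gave %Inhibition against no-MAGE-A11 and DMSO controls.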

percent inhibition (TR-FRET)	Structure (SMILES)
4.96	CCOC(=O)c1cnc2c(C)cc(Cl)cc2c1NCCN1CCOCC1 [SJ000129560]
2.013	Cc1ccc(CN(CCCCNc2ccnc3cc(Cl)ccc23)Cc2ccccc2)o1 [SJ000312682]
-10.8066	CCOc1ccc(C(=O)c2cnc3ccc(C)cc3c2N2CCN(CC)CC2)cc1 [SJ000247339]
-47.2425	CCOC(=O)c1cnc2ccc(Br)cc2c1NCCN1CCOCC1 [SJ000031339]
-258.026	CCCN(CCCNc1c2ccc(Cl)cc2nc2ccc(OC)cc12)Cc1ccsc1 [SJ000520922]
-2.261	CCN1CCN(c2c(S(=O)(=O)c3ccc(Cl)cc3)cnc3ccccc23)CC1 [SJ000247367]
-0.2733	CCOc1ccc2ncc(C(=O)c3ccccc3)c(N3CCN(CC)CC3)c2c1 [SJ000247283]
-21.2074	CCc1ccc(S(=O)(=O)c2cnc3ccccc3c2N2CCN(c3ccccc3)CC2)cc1 [SJ000117053]
-2.9894	Clc1ccc2c(N3CCN(CCCN4CCN(c5ccnc6cc(Cl)ccc56)CC4)CC3)ccnc2c1 [SJ000518980]
-442.307	COc1ccc2nc3cc(Cl)ccc3c(NCCCNCC3CCOC3)c2c1 (stereo not shown) [SJ000521003]
17.2064	O=[N+]([O-])c1ccccc1CN(CCCCNc1ccnc2cc(Cl)ccc12)Cc1ccccc1 [SJ000361200]
-15.9162	Clc1ccc2c(NCCCCN(CCOCc3ccccc3)Cc3ccccc3)ccnc2c1 [SJ000357543]
-279.905	COc1ccc2nc3cc(Cl)ccc3c(NCCCNCc3nccn3C)c2c1 [SJ000521006]
-353.834	COc1ccc2nc3cc(Cl)ccc3c(NCCCNCc3ccccc3F)c2c1 [SJ000523034]
29.9089	CCc1ccc(CN(CCCCNc2ccnc3cc(Cl)ccc23)Cc2ccccc2)cc1 [SJ000520443]

The next lines start with the compound.

Structure (SMILES)	percent inhibition (TR-FRET)
COc1ccccc1N1CCN(c2c(S(=O)(=O)c3ccc(C)cc3)cnc3ccccc23)CC1 [SJ000117065]	-8.687
CCCNCCCNc1c2ccc(Cl)cc2nc2ccc(OC)cc12 [SJ000361096]	-498.476
O=S(=O)(c1ccccc1)c1cnc2ccc(F)cc2c1N1CCN(Cc2ccccc2)CC1 [SJ000247257]	-62.2806
Clc1ccc2c(NC3CCN(Cc4ccc5ccccc5c4)CC3)ccnc2c1 [SJ000523100]	4.171
COc1ccccc1N1CCN(c2c(S(=O)(=O)c3ccc(C)c(C)c3)cnc3ccccc23)CC1 [SJ000117068]	-5.706
CCCN(CCCCNc1ccnc2cc(Cl)ccc12)Cc1ccoc1 [SJ000311200]	12.3053
C#CCOCC(O)CN1CCN(c2cc(C(F)(F)F)nc3ccccc23)CC1 (stereo not shown) [SJ000228018]	-9.5157
O=S(=O)(c1ccccc1)c1cnc2ccc(F)cc2c1N1CCN(c2ccccc2)CC1 [SJ000083976]	-31.1045
COc1ccc2nc3cc(Cl)ccc3c(NCCCNCc3ccsc3)c2c1 [SJ000523026]	-353.834
CCc1nc2ccccc2c(NC(=O)CN2CCCCC2)c1C [SJ000111682]	1.593
CCN(CC)CC(=O)Nc1c2c(nc3ccccc13)CCC2 [SJ000049655]	0.6542
CCCN(CCCNc1c2ccc(Cl)cc2nc2ccc(OC)cc12)Cc1ccc(-c2ccccc2[N+](=O)[O-])o1 [SJ000523019]	-102.758
COc1ccc2nc3cc(Cl)ccc3c(NCCCNCc3nccs3)c2c1 [SJ000520989]	-355.207
Clc1ccc2c(NC3CCN(Cc4ccc(Cl)o4)CC3)ccnc2c1 [SJ000311180]	0.6827
COc1ccc2nc3cc(Cl)ccc3c(NCCCNCc3ccc(C)o3)c2c1 [SJ000361089]	-229.025
CCN1CCN(c2c(S(=O)(=O)c3ccc(Cl)cc3)cnc3ccc(C)cc23)CC1 [SJ000083967]	-3.0982

Same assay, conditions: single point TR-FRET screening of quinoline compounds against MAGE-A11:PCF11; 15 µM

percent inhibition (TR-FRET)	Structure (SMILES)
5.6	Clc1ccc2c(NCCCN(Cc3ccccc3)Cc3cc4ccccc4o3)ccnc2c1 [SJ000520461]
0.9703	CCCN(CCCNc1c2ccc(Cl)cc2nc2ccc(OC)cc12)Cc1ccc(F)c(F)c1 [SJ000520942]
63.4168	CN(C)c1cccc(Oc2ccc3c(NCCCNCc4ccco4)ccnc3c2)c1 [SJ000311230]
12.7954	CCCN(CCCNc1ccnc2cc(Cl)ccc12)Cc1cc2ccccc2nc1Cl [SJ000522760]
-35.9356	CCCN(CCCNc1c2ccc(Cl)cc2nc2ccc(OC)cc12)CC1CCOC1 (stereo not shown) [SJ000575149]
11.7837	COc1ccc(CN(CCCNc2ccnc3cc(Cl)ccc23)Cc2ccccc2)cc1 [SJ000522720]
22.6913	CCCN(CCCNc1c2ccc(Cl)cc2nc2ccc(OC)cc12)Cc1ccccc1OC(F)(F)F [SJ000522961]
-20.4102	CCCN(CCCNc1ccnc2cc(C(F)(F)F)ccc12)Cc1cc2ccccc2o1 [SJ000520479]
-23.261	CCOC(=O)c1cnc2c(C)c(Cl)ccc2c1NCCCN1CCOCC1 [SJ000129912]
57.5354	CC(C)(C)c1ccc(Oc2ccc3c(NCCCNCc4ccco4)ccnc3c2)cc1 [SJ000311234]
3.413	CCCN(CCCNc1ccnc2cc(Cl)ccc12)Cc1nc(C)cs1 [SJ000522997]
-2.118	CCOC(=O)c1cnc2c(Cl)cc(Cl)cc2c1NCCCN1CCOCC1 [SJ000176476]
18.0772	Fc1ccc(CN(CCCNc2ccnc3cc(Cl)ccc23)Cc2ccccc2)cc1 [SJ000522721]
-90.1278	CCCN(CCCNc1c2ccc(Cl)cc2nc2ccc(OC)cc12)Cc1cccc(F)c1 [SJ000520945]
19.7269	CCCN(CCCNc1ccnc2cc(Cl)ccc12)Cc1sccc1C [SJ000357439]
5.6	CCCN(CCCNc1ccnc2cc(C(F)(F)F)ccc12)Cc1cc(OC(F)(F)F)ccc1OC [SJ000520485]
16.7163	CCCN(CCCNc1ccnc2cc(Cl)ccc12)Cc1ccc(C(=O)OC)cc1 [SJ000523042]
0.9854	COc1ccc2nc3cc(Cl)ccc3c(NCCCNCc3ccc[nH]3)c2c1 [SJ000361084]
14.1686	CCCN(CCCNc1ccnc2cc(Cl)ccc12)CC(CC)CC [SJ000522752]

The next lines start with the compound.

Structure (SMILES)	percent inhibition (TR-FRET)
CCOC(=O)c1cnc2c(OC)cccc2c1NCCCN1CCOCC1 [SJ000180455]	3.635
Clc1ccc2c(NCCCNCc3cc(Br)cs3)ccnc2c1 [SJ000521028]	22.1075
CCCN(CCCNc1ccnc2cc(Cl)ccc12)CCCSC [SJ000357576]	7.824
CCCN(CCCNc1ccnc2cc(C(F)(F)F)ccc12)Cc1ccccc1OC(F)(F)F [SJ000520470]	5.934
FC(F)(F)c1ccc2c(NCCCNCC3CCCCC3)ccnc2c1 [SJ000361110]	27.1172
CCCN(CCCNc1ccnc2cc(C(F)(F)F)ccc12)Cc1ccccc1F [SJ000361274]	19.2187
CCCN(CCCNc1c2ccc(Cl)cc2nc2ccc(OC)cc12)Cc1ccc(Cl)cc1Cl [SJ000520956]	9.598
FC(F)(F)c1ccc2c(NCCCNCc3nccs3)ccnc2c1 [SJ000521046]	7.779
CCCN(CCCNc1ccnc2cc(Cl)ccc12)Cc1ccsc1 [SJ000522744]	7.824
CSCCCNCCCNc1ccnc2cc(Cl)ccc12 [SJ000523051]	14.9659
CCCN(CCCNc1ccnc2cc(Cl)ccc12)Cc1cnn(C)c1 [SJ000523009]	10.0613
CC(C)CN(CCCNc1ccnc2cc(Cl)ccc12)Cc1ccccc1 [SJ000357468]	18.7467
CCCN(CCCNc1c2ccc(Cl)cc2nc2ccc(OC)cc12)Cc1ccccc1O [SJ000520926]	-91.8376
C#Cc1ccccc1CN(CCC)CCCNc1ccnc2cc(Cl)ccc12 [SJ000523000]	12.4462
CCCN(CCCNc1ccnc2cc(C(F)(F)F)ccc12)Cc1ccccn1 [SJ000361252]	15.1623
CCCN(CCCNc1c2ccc(Cl)cc2nc2ccc(OC)cc12)Cc1sccc1C [SJ000520921]	-83.8109
CCOC(=O)c1cnc2c(Cl)cccc2c1NCCCN1CCOCC1 [SJ000279431]	4.102
Cn1cccc1CNCCCNc1ccnc2cc(C(F)(F)F)ccc12 [SJ000521041]	-6.879
COc1ccc(F)c(CN(CCCNc2ccnc3cc(Cl)ccc23)Cc2ccccc2)c1 [SJ000520445]	4.762
Clc1ccc2c(NCCCN(Cc3ccccc3)Cc3nccs3)ccnc2c1 [SJ000312676]	-4.148
COc1ccc(O)c(CN(CCCNc2ccnc3cc(Cl)ccc23)Cc2ccccc2)c1 [SJ000357463]	14.1686
FC(F)(F)c1ccc2c(NCCCNCc3ccc[nH]3)ccnc2c1 [SJ000361105]	41.6887
Cn1ccnc1CN(CCCNc1ccnc2cc(Cl)ccc12)Cc1ccccc1 [SJ000520431]	15.361
